Values of other authors as cited in US20240415910A1, “Toxicity-Removed and Medicinal Effect-Retained Fuzi Decoction Granule and Preparation Method Thereof” (Zhejiang Chinese Medical University, priority 2023, published 2024).

Assays:
[1] = water and ethanol
[2] = oral administration

Question: With CCN1C[C@]2(COC)[C@H](O)C[C@H](OC)[C@@]34[C@@H]5C[C@@]6(O)[C@H](OC(=O)c7ccccc7)[C@@H]5[C@@](OC(C)=O)([C@@H]([C@H](OC)[C@H]23)[C@@H]14)[C@@H](O)[C@@H]6OC [Aconitine] as the compound, how does the solubility [1] read?
Answer: Its solubility is “soluble in both water and ethanol”.

Question: What about the “oral amount that can cause poisoning reactions” value [2] of the same compound?
Answer: Its value is 0.2 mg.
